Test results: patent US6485755B1, “Methods of using electron active compounds for managing cancer” (Marantech Holding, priority 2000, dated 2002)
Like-named read-outs stand apart in the source and are kept apart here.

Legend:
[1] = tested on: breast cancer
Protocol: A subject group was formed of thirty female residents of Central America aged 32 to 52 years who had been diagnosed as having breast cancer. […] The diagnosis of each subject was confirmed by biopsy and a mammogram was acquired from each subject.
Each subject was evaluated daily by an oncologist(s) and each received a single dosage of tetrasilver tetroxide by IV, i.e., intravenously, sufficient to provide a concentration in the bloodstream of 10 ppm. One-half of the patients received the dosage in 10 minutes by IV injection. The other half of the subjects received the dosage by IV injection over a 4-hour period.
As discussed below, the subjects were arranged in three histology groups. Within each histologic group, 50% of the subjects received the dosage via the 10 minute IV and the other 50% of the subjects received the dosage over the 4 hour period of time.
Prior to initiating treatment, the tetrasilver tetroxide was subjected a quality assurance protocol to reduce side effects.
Group I: Group I included 10 patients who had been diagnosed as having infiltrative canalicular breast carcinoma.
A 1 cm diameter biopsy fragment was sent to a pathologist laboratory.
Group II: Group II included 10 subjects were diagnosed as having ductile carcinoma special type, medular breast cancer.
Group III: Group III included ten patients diagnosed as having infiltrative lobular breast cancer.
For each of the three groups, the dosage was 10 ppm for every subject. The patients had 24-hour evaluations by three oncologists who were each responsible for an 8-hour time period. Every 4 hours, a professional nurse acquired vital signs from the subjects. Twenty-four hour hemodynamic monitoring was performed. The subjects walked 2 hours after they received the dosage and they were prescribed a free diet. Every twenty-four hours, urine was collected. Every seven days, the following laboratory tests were performed: a complete blood count, hemoglobin, hematocracity, vcm, vhcm, complete red blood cells, complete white blood cells, albumin, bilirubin, calcium, and cholesterol, creatine, glucose, ldh, potassium, sodium, triglyceride, uric acid, urea nitrogen, AST and SGOT.

[2] = tested on: PANC-i; conditions: estimated
Protocol: (§1) An independent laboratory performed cytotoxicity tumor cell proliferation studies and evaluations. A culture of leukemia K562 was tested in vitro against media concentrations of tetrasilver tetroxide at: 0.5, 1,5, 10, 50, 100, 500 and 1000 ppm.
(§2) The tetroxide was dispersed in pure dimethyl sulfoxide and then diluted with Holipharm NPS buffer PH=7.4 (Holipharm International Co., Wilmington, Del.) in culture media to achieve the aforesaid final assay concentrations. The acronym NPS refers to non phosphate non saline. The culture media comprised RPMI 1640, 90% and fetal bovine serum, 10%. The cancer cultures were obtained from a cell line provided by the American Type Culture Collection (ATCC) and were incubated at 37° C. with 5% CO2 in air atmosphere. The culture was a human chronic myelogenous leukemia, of cell line source ATCCCCL-243.
(§3) As for the actual evaluation, cell proliferation analysis was based on the ability of viable cells to cause alamar blue to change from oxidized (non-fluorescent, blue) to reduced (fluorescent, red) form. Details of the procedure are described in an article by S. Ansar Ahmed et. al. in the Journal of Immunological Methods 170 (1994).
(§4) The ^aIC50 (50% Inhibition Concentration) is the test compound concentration where the increase from times in the number or mass of treated cells was only 50% as much as the corresponding increase in the vehicle-control at the end of experiment. The bTGI (Total Growth Inhibition) is the test compound concentration where the number or mass of treated cells at the end of experiment was equal to that at time. The CLC (50% Lethal Concentration) is the test compound concentration where the number or mass of treated cells at the end of experiment was half that at time.

[3] = tested on: MIA PaCa2; conditions: MIA PaCa2, estimated
Protocol: as §1, §2, §3, §4

[4] = tested on: MCF-7; conditions: MCF-7, estimated
Protocol: as §1, §2, §3, §4

[5] = tested on: T47D; conditions: estimated
Protocol: as §1, §2, §3, §4

[6] = tested on: A549; conditions: A549, estimated
Protocol: as §1, §2, §3, §4

[7] = tested on: U937; conditions: U937, estimated
Protocol: as §1, §2, §3, §4

[8] = tested on: human malignant melanoma cell line SK-MEL-5
Protocol: as §1, §2, §3, §4

[9] = tested on: DLD-i; conditions: estimated
Protocol: as §1, §2, §3, §4

[10] = tested on: KATO III; conditions: estimated
Protocol: as §1, §2, §3, §4

[11] = tested on: PC-3; conditions: PC-3, estimated
Protocol: as §1, §2, §3, §4

[12] = tested on: H33HJ-.JA1; conditions: H33HJ-.JA1, estimated
Protocol: as §1, §2, §3, §4

[13] = tested on: A498; conditions: A498, estimated
Protocol: as §1, §2, §3, §4

[14] = tested on: leukemia K562
Protocol: as §1, §2, §3, §4

[15] = tested on: HeDG2; conditions: HeDG2, estimated
Protocol: as §1, §2, §3, §4

[16] = tested on: pc-6; conditions: pc-6, estimated
Protocol: as §1, §2, §3, §4

[17] = tested on: HL-60; conditions: HL-60, estimated
Protocol: as §1, §2, §3, §4

[18] = single IV injection at about 40 ppm of human blood; cited from earlier work
[19] = tested on: gynecological yeast infection; conditions: 10 ppm silver tetroxide and 40 ppm sodium persulfate; cited from earlier work
[20] = tested on: toenail fungus; conditions: 25% suspension of the composition; cited from earlier work
[21] = tested on: athlete's foot; conditions: solution of 100 ppm of the composition; cited from earlier work
[22] = compared with Ag(I) compounds; cited from earlier work
[23] = persons not prone to silver allergies
From the text: Preferred routes of administration include topically and application to mucosa. Application can be made, for example, digitally or using a suitable applicator.

[24] = Group III, day 20 after treatment

Which “sodium, potassium and magnesium blood levels” value ([1]; Group I) does the source give for `[Ag+].[Ag+].[Ag+].[Ag+].[O-2].[O-2].[O-2].[O-2]` [tetrasilver tetroxide] here?
Its value is “decreased”.

And the nodule on palpation ([1]; Group I infiltrative canalicular breast carcinoma, single IV dose 10 ppm in bloodstream, 12 days after treatment)?
Its nodule on palpation is “the nodule was no longer discernable by touch”.

And the “patients with increase in body temperature and slight liver enlargement” value ([1]; Group I, 10 minute IV injection subgroup)?
The value was “Three of the patients”.

What about the “biopsies reported as normal mammary tissue” value ([1]; Group I, biopsy ordered 19 days after treatment) of the same compound?
The value was 100%.

What about the liver function ([1]; Group I, patients with liver enlargement) of the same compound?
The liver function was “not affected”.

And the liver function ([1]; Group II)?
The liver function was “not affected”.

What about the “sodium, potassium and magnesium blood levels” value ([1]; Group II) of the same compound?
The value was “decreased”.

And the average tumor size ([1]; Group II medular breast cancer, 36 hours after treatment, formerly 10 cm)?
Its average tumor size is 8.4 cm.

And the “biopsy reported as normal mammary tissue” value ([1]; Group II, biopsy after 24 days)?
Its value is 90%.

What about the tumor mass ([1]; Group II, day 16 after treatment) of the same compound?
The tumor mass was “the huge tumor mass was gone”.

What about the “patients with increase in body temperature and slight liver enlargement” value ([1]; Group II, direct IV injection subgroup) of the same compound?
The value was “One patient”.

And the “sodium, potassium and magnesium blood levels” value ([1]; Group III)?
Its value is “deceased”.

And the average nodule size ([1]; Group III infiltrative lobular breast cancer, 5 days after treatment, from 4 cm)?
Its average nodule size is 2.6 cm.

And the “biopsies reported as normal mammary tissue” value ([1]; Group III, biopsy ordered day 29 after treatment)?
Its value is 80%.

And the average nodule size [1, 24]?
The average nodule size was 1 cm.

And the “remission of retracted nipples, nipple bleeding, distorted areola, mass attachment” value [1, 24]?
The value was 90%.

And the “patients with increase in body temperature or slight liver enlargement” value ([1]; Group III, direct injection subgroup)?
The value was “None of the patients”.

And the “period to apparent cure” value ([1]; ductile carcinoma special type, medular breast carcinoma (Group II))?
Its value is 30 days.

And the “period to apparent cure” value ([1]; infiltrative breast carcinoma (Group I))?
Its value is 24 days.

And the “period to apparent cure” value ([1]; infiltrative lobular breast cancer (Group III))?
Its value is 30 days.

And the IC50 [2]?
Its IC50 is 4.8 ppm.

What about the LC50 [2] of the same compound?
The LC50 was 8.6 ppm.

And the TGI [2]?
The TGI was 6.4 ppm.

What about the IC50 [3] of the same compound?
Its IC50 is 2.0 ppm.

And the LC50 [3]?
Its LC50 is 8.1 ppm.

What about the TGI [3] of the same compound?
Its TGI is 4.0 ppm.

What about the IC50 [4] of the same compound?
The IC50 was 3.0 ppm.

And the LC50 [4]?
The LC50 was 5.0 ppm.

What about the TGI [4] of the same compound?
Its TGI is 3.9 ppm.

And the IC50 [5]?
The IC50 was 1.1 ppm.

What about the LC50 [5] of the same compound?
The LC50 was 2.6 ppm.

What about the TGI [5] of the same compound?
The TGI was 1.6 ppm.

And the IC50 [6]?
Its IC50 is 4.8 ppm.

And the LC50 [6]?
The LC50 was 7.0 ppm.

What about the TGI [6] of the same compound?
Its TGI is 5.8 ppm.

What about the IC50 [7] of the same compound?
The IC50 was 1.3 ppm.

And the LC50 [7]?
The LC50 was 3.6 ppm.

And the TGI [7]?
Its TGI is 2.2 ppm.

And the “IC50 (50% Inhibition Concentration)” value [8]?
Its value is 3.7 ppm.

And the “LC50 (50% Lethal Concentration)” value [8]?
The value was 6.5 ppm.

What about the “TGI (Total Growth Inhibition)” value [8] of the same compound?
The value was 4.9 ppm.

And the IC50 [9]?
Its IC50 is 2.5 ppm.

What about the LC50 [9] of the same compound?
Its LC50 is 3.6 ppm.

What about the TGI [9] of the same compound?
The TGI was 3.0 ppm.

And the IC50 [10]?
Its IC50 is 3.2 ppm.

What about the LC50 [10] of the same compound?
The LC50 was 4.1 ppm.

What about the TGI [10] of the same compound?
Its TGI is 3.6 ppm.

What about the IC50 [11] of the same compound?
Its IC50 is 7.7 ppm.

What about the LC50 [11] of the same compound?
The LC50 was 25 ppm.

And the TGI [11]?
The TGI was 14 ppm.

And the IC50 [12]?
The IC50 was 0.79 ppm.

And the LC50 [12]?
Its LC50 is 3.8 ppm.

And the TGI [12]?
The TGI was 1.3 ppm.

And the IC50 [13]?
The IC50 was 1.8 ppm.

And the LC50 [13]?
Its LC50 is 3.1 ppm.

What about the TGI [13] of the same compound?
Its TGI is 2.4 ppm.

And the “IC50 (50% Inhibition Concentration)” value [14]?
The value was 2.2 ppm.

And the “LC50 (50% Lethal Concentration)” value [14]?
The value was 6.0 ppm.

And the “TGI (Total Growth Inhibition)” value [14]?
The value was 4.6 ppm.

What about the IC50 [15] of the same compound?
Its IC50 is 2.6 ppm.

What about the LC50 [15] of the same compound?
The LC50 was 4.7 ppm.

And the TGI [15]?
The TGI was 3.5 ppm.

What about the IC50 [16] of the same compound?
The IC50 was 0.9 ppm.

What about the LC50 [16] of the same compound?
Its LC50 is 1.1 ppm.

What about the TGI [16] of the same compound?
The TGI was 1.0 ppm.

And the IC50 [17]?
The IC50 was 2.1 ppm.

What about the LC50 [17] of the same compound?
The LC50 was 4.6 ppm.

What about the TGI [17] of the same compound?
Its TGI is 3.1 ppm.

And the “adverse effect on the liver” value [18]?
The value was “hepatomegaly”.

What about the liver function [18] of the same compound?
Its liver function is “no reported loss of liver function”.

What about the “outcome of gynecological yeast infection” value [19] of the same compound?
Its value is “curing”.

And the “outcome of toenail fungus, single case” value [20]?
Its value is “cure”.

And the “outcome of athlete's foot, single case” value [21]?
Its value is “cure”.

What about the “staining of organic matter such as skin” value [22] of the same compound?
Its value is “did not stain organic matter such as skin”.

And the “ill effects or irritation on application to the skin” value [23]?
Its value is “without any ill effects or evidence of irritation”.
